# According to US10183936B2, “Hepatitis B core protein allosteric modulators” (priority 2014, dated 2019):
# What was measured:
# AD38 cells = assay: Viability of AD38 cells (Promega CellTiter-Glo) at the end of compound treatment; assay type: cell-based; conditions: 10 μM compound, 6 days, luminescence normalized against DMSO control wells (controls being 100%)
# Summary of the method: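 AD38 cells seeded at 50,000/well received compound from a 10× solution in 10% DMSO and were incubated 6 days at 37° C. Viability was then read by CellTiter-Glo luminescence in tetracycline-free medium with 2% FBS and 1% DMSO, normalized to DMSO control wells (100%) and reported as percent viability.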
# [1] = system: HBV viral production in AD38 cells; assay: Viral load production in AD38 cells by quantitative PCR of the HBV core sequence in supernatant; assay type: cell-based; conditions: 10 μM compound, 6 days at 37° C., viral load in supernatant compared against DMSO control wells; for activity at 10 µM: Hepatitis B virus, 144 h, read-out: AD38 Viral Load (CpAM/DMSO %) at 10 μM
# Summary of the method: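 AD38 cells seeded at 50,000/well, treated 6 days at 37° C with compound added as 10× solution in 10% DMSO. HBV core sequence in clarified supernatant quantified by TaqMan qPCR against known standards; viral load compared with DMSO control wells.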
Structure (SMILES),AD38 Viability Normalized Result (CPAM/DMSO %) at 10 μM (AD38 cells),activity at 10 µM [1],AD38 Viral Load (CpAM/DMSO %) at 10 μM [1]
O=C(NCCc1cccnc1)c1ccc2c(c1)NC(=O)c1ccccc1N2Cc1ccccc1 [Compound 1475],107%,47%,–
O=C(NCc1cncs1)c1ccc2c(c1)NC(=O)c1ccccc1[SH]2O (stereo not shown) [Compound 1535],85%,–,108%
O=C(NCc1cccnc1)c1ccc2c(c1)NC(=O)c1ccccc1[S+]2[O-] (stereo not shown) [Compound 1427],85%,7%,–
O=C(NCc1ccccn1)c1ccc2c(c1)NC(=O)c1ccccc1S2 [Compound 1210],116%,25%,–
O=C(NCc1cncnc1)c1ccc2c(c1)NC(=O)c1ccccc1S2(=O)=O [Compound 1446],84%,3%,–
O=C(NCCc1cccnc1)c1ccc2c(c1)NC(=O)c1ccc(F)cc1S2 [Compound 1377],65%,5%,–
O=C(NCc1cnccn1)c1ccc2c(c1)NC(=O)c1ccccc1S2 [Compound 1586],112%,23%,–
O=C(NCc1cncs1)c1ccc2c(c1)NC(=O)c1ccccc1[S+]2[O-] (stereo not shown) [Compound 1388],71%,5%,–
O=C1Nc2cc(S(=O)(=O)NCc3ccccc3)ccc2Sc2ccccc21 [Compound 1414],89%,39%,–
O=C1Nc2c(cc(F)c(C(=O)NCCc3ccccn3)c2F)Sc2ccccc21 [Compound 1519],81%,73%,–
Nc1nnc(CCNC(=O)c2ccc3c(c2)NC(=O)c2ccccc2S3)s1 [Compound 1568],100%,1%,–
O=C(NCc1nncs1)c1ccc2c(c1)NC(=O)c1ccccc1S2 [Compound 1571],117%,35%,–
O=C(NCCc1ccc(-c2ccccc2)cc1)c1ccc2c(c1)NC(=O)c1cc(F)ccc1S2 [Compound 1370],94%,5%,–
Cc1nnc(CCNC(=O)c2ccc3c(c2)NC(=O)c2ccccc2S3)o1 [Compound 1603],91%,6%,–
O=C(NCc1cscn1)c1ccc2c(c1)NC(=O)c1ccccc1S2 [Compound 1584],95%,52%,–
CN1c2ccc(C(=O)NCCc3cncnc3)cc2NC(=O)c2ccccc21 [Compound 1548],85%,28%,–
COC(C)(C)CCNC(=O)c1ccc2c(c1)NC(=O)c1ccccc1S2 [Compound 1238],104%,26%,–
COc1cccc(CCNC(=O)c2ccc3c(c2)NC(=O)c2ccccc2S3)c1 [Compound 1124],99%,80%,–
"COC(=O)c1cccc(-c2cccc(NC(=O)c3ccc4c(c3)NC(=O)c3cc(F)ccc3S4)c2)c1 [Compound 1422, Methyl 3′-(2-fluoro-11-oxo-10, 11-dihydrodibenzo [b,f] [1,4]thiazepine-8-carboxamido)-[1, 1′-biphenyl]-3-carboxylate]",95%,64%,–
O=C(NCc1cccc(C(F)(F)F)c1)c1ccc2c(c1)NC(=O)c1ccccc1S2 [Compound 1166],119%,10%,–
O=C(NCc1cncs1)c1ccc2c(c1)NC(=O)c1ccccc1[SH]2O (stereo not shown) [Compound 1536],120%,–,2%
O=C(NCCc1cncnc1)c1ccc2c(c1)NC(=O)c1c(F)cccc1S2 [Compound 1543],90%,72%,–
O=C(Nc1cccc(-c2ccccc2)c1)c1ccc2c(c1)NC(=O)c1c(F)cccc1S2 [Compound 1472],95%,37%,–
O=C1Nc2cc(S(=O)(=O)Nc3ccccc3)ccc2Sc2ccccc21 [Compound 1412],87%,48%,–
O=C(Nc1cccc(-c2ccccc2)c1)c1ccc2c(c1)NC(=O)c1ccccc1S2(=O)=O [Compound 1458],49%,12%,–
O=C(NCc1ncccn1)c1ccc2c(c1)NC(=O)c1ccccc1S2 [Compound 1587],92%,78%,–
O=C(Nc1cccc(-c2cccnc2)c1)c1ccc2c(c1)NC(=O)c1cc(F)ccc1S2 [Compound 1400],105%,34%,–

Structure (SMILES),AD38 Viability Normalized Result (CPAM/DMSO %) at 10 μM (AD38 cells),activity at 10 µM [1],AD38 Viral Load (CpAM/DMSO %) at 10 μM [1]
CCN1c2ccc(C(=O)NCc3cnco3)cc2NC(=O)c2ccccc21 [Compound 1564],119%,10%,–
O=C(NCCc1cncnc1)c1ccc2c(c1)NC(=O)c1ccccc1[S+]2[O-] (stereo not shown) [Compound 1423],91%,37%,–
O=C(Nc1cccc(-c2cncs2)c1)c1ccc2c(c1)NC(=O)c1cc(F)ccc1S2 [Compound 1441],90%,28%,–
O=C1Nc2c(cc(F)c(C(=O)NCc3cnco3)c2F)Sc2ccccc21 [Compound 1530],93%,70%,–
O=C(Nc1cccc(-c2ccccn2)c1)c1ccc2c(c1)NC(=O)c1cc(F)ccc1S2 [Compound 1385],51%,26%,–
COc1cccc(CNC(=O)c2ccc3c(c2)NC(=O)c2ccccc2S3)c1 [Compound 1160],105%,2%,–
O=C(NCCC1CCCCC1)c1ccc2c(c1)NC(=O)c1cc(F)ccc1S2 [Compound 1285],108%,3%,–
O=C(NCc1cccnc1)c1ccc2c(c1)NC(=O)c1ccccc1N2Cc1ccccc1 [Compound 1493],80%,51%,–
O=C(NCc1cncnc1)c1ccc2c(c1)NC(=O)c1cc(F)ccc1S2 [Compound 1308],99%,1%,–
Cc1nnc(NC(=O)c2ccc3c(c2)NC(=O)c2cc(F)ccc2S3)o1 [Compound 1503],87%,40%,–
O=C(NCCc1cncs1)c1cc2c(cc1F)Sc1ccccc1C(=O)N2 [Compound 1558],88%,51%,–
O=C(NCc1cccnc1)c1ccc2c(c1)NC(=O)c1cccc(F)c1S2 [Compound 1392],85%,2%,–
O=C(NCCOc1ccccc1)c1ccc2c(c1)NC(=O)c1ccccc1S2 [Compound 1192],81%,3%,–
O=C(Nc1nc(-c2ccccc2)co1)c1ccc2c(c1)NC(=O)c1cc(F)ccc1S2 [Compound 1454],95%,27%,–
CN(C)S(=O)(=O)c1ccc(CCNC(=O)c2ccc3c(c2)NC(=O)c2ccc(F)cc2S3)cc1 [Compound 1387],78%,2%,–
CC(C)(CNC(=O)c1ccc2c(c1)NC(=O)c1ccccc1S2)c1ccccc1 [Compound 1213],55%,2%,–
O=C1Nc2cc(S(=O)(=O)Nc3ccc(F)cc3)ccc2Sc2ccccc21 [Compound 1413],78%,92%,–
O=C(NCCc1ccc(-n2ccnn2)cc1)c1ccc2c(c1)NC(=O)c1ccccc1S2 [Compound 1266],74%,1%,–
CN(C)S(=O)(=O)c1ccc(CCNC(=O)c2ccc3c(c2)NC(=O)c2ccccc2[S+]3[O-])cc1 (stereo not shown) [Compound 1486],94%,53%,–
O=C(NCCc1ccccn1)c1ccc2c(c1)NC(=O)c1c(F)cccc1S2 [Compound 1471],97%,16%,–
O=C(Nc1cccc(-c2ccccc2)c1)c1ccc2c(c1)NC(=O)c1ccccc1[S+]2[O-] (stereo not shown) [Compound 1375],89%,11%,–
CC(=O)Nc1ccccc1CNC(=O)c1ccc2c(c1)NC(=O)c1ccccc1S2 [Compound 1253],103%,15%,–
O=C(NCCc1cncs1)c1ccc2c(c1)NC(=O)c1ccc(F)cc1S2 [Compound 1403],82%,15%,–
O=C(Nc1ccccc1O)c1ccc2c(c1)NC(=O)c1ccccc1S2 [Compound 1229],76%,45%,–
Cc1c(C(=O)NCCc2ccc(-c3ccccc3)cc2)ccc2c1NC(=O)c1ccccc1S2 [Compound 1495],77%,9%,–
CCc1ccc(CNC(=O)c2ccc3c(c2)NC(=O)c2ccccc2S3)cc1 [Compound 1188],83%,4%,–
